{"source": "patent US5824647A", "about": "“Chemotactic wound healing peptides” (priority 1995, dated 1998)", "tested_on": "infant foreskin fibroblasts", "experiment": "Fibroblast proliferation, [3H]thymidine incorporation", "format": "cell-based", "conditions": "[3H]thymidine pulse after 72 h, harvest 24 h later; positive control human recombinant TGF-β1 (25 ng/ml)", "protocol": "The peptides of the invention were also found to induce fibroblast proliferation in vitro. Fibroblast proliferation was measured in low passaged (fewer than 8) fibroblast cultures. Fibroblasts were added at low density (20,000 cells/well) to Falcon 3047 multiwell plates in maintenance medium. After incubation at 37° C. in a humidified atmosphere containing 5% CO2 for 16 h, the medium was removed from each well and replaced with 450 μl serum-free maintenance medium containing 0.1% BSA and 50 μl aliquots of sterilized test sample. Each sample being tested for mitogenic activity was added to triplicate wells. […] After 15 min. of repeated agitation of each multi-well plate, a 250 μl aliquot from each well was transferred to scintillation vials containing Bio-Safe II (Research Products International Corp., Mt. Prospect, Ill.), cooled for 4 h, and counted in a scintillation counter. Fibroblast proliferation was expressed as \"Mean CPM±SEM\" per well of the replicates. […]\nFibroblast proliferation experiments in response to the 7-mer peptides (peptides 368-374) were carried out as generally described above. […] All cultures were performed in triplicate and results were expressed as the means of triplicate values as counts per minute (CPM) per well. […]"}
{"substance": "VYYVGRK [Peptide 368-374, 7-mer corresponding to amino acids 368-374 of TGF-β1]", "values": [{"measurement": "fibroblast proliferation / growth (in words)", "value": "most effective in inducing fibroblast growth, exceeding that obtained with human recombinant TGF-β1"}]}
